pIC50: −log10 of the molar value.
Legend:
U-87 MG [1] = test: Antiproliferative activity against human U-87-MG cells; type: functional, cell-based, U-87MG ATCC
U-251 [2] = test: Antiproliferative activity against human U-251MG cells; type: functional, cell-based
U-251 [3] = test: Growth inhibition of human U-251MG cells measured for 48 hrs by SRB assay; type: functional
C6 = test: Cytotoxicity against rat C6 cells assessed as reduction in cell viability incubated for 48 hrs by trypan blue dye based assay; type: functional; conditions: C6, 48 h
Hs 683 = test: Cytotoxicity against human Hs 683 cells by MTT assay; type: functional, cell-based
[4] = Cytotoxicity against human U373 MG cells by MTT assay; type: functional, cell-based, U-373MG ATCC
U-87 MG [5] = test: Antiproliferative activity against human U-87 MG cells assessed as reduction in cell growth incubated for 72 hrs by MTS assay; type: functional, cell-based, U-87MG ATCC
T98G = test: Antiproliferative activity against human T98G cells assessed as reduction in cell growth incubated for 72 hrs by MTS assay; type: functional, cell-based
[6] = Antiproliferative activity against human GSC#1 cells assessed as reduction in cell growth incubated for 72 hrs by MTS assay; type: functional, cell-based; conditions: GSC#1, 72 h
U-87 MG [7] = test: Antitumor activity against human U-87 MG cells implanted with chicken egg assessed as reduction in tumor weight at 10 uM measured after 7 days by microscopic analysis (reference value: 27.87+/-4.7 mg); type: functional, U-87MG ATCC; conditions: time 7 day
U-251 [8] = test: Cytotoxicity against human U-251MG cells assessed as reduction in cell viability measured after 24 hrs by MTT assay; type: functional, cell-based; conditions: U-251, 24 h
U-87 MG [9] = test: Cytotoxicity against human U-87 MG cells assessed as reduction in cell viability measured after 24 hrs by MTT assay; type: functional, cell-based, U-87MG ATCC
U-118-MG = test: Cytotoxicity against human U-118-MG cells assessed as reduction in cell viability measured after 24 hrs by MTT assay; type: functional, cell-based
A 172 = test: Cytotoxicity against human A-172 cells assessed as reduction in cell viability measured after 24 hrs by MTT assay; type: functional, cell-based; conditions: A 172, 24 h
[10] = Toxicity in human U-87MG cells xenografted in nude mouse assessed as lethal dose at 10 mg/kg, ip administered once daily for 20 days relative to control; type: organism-based; conditions: in vivo, time 20 day
U-251 [11] = test: Antiproliferative activity against human U-251MG cells assessed as reduction in cell growth measured at 10 uM for 48 hrs by MTT assay relative to control; type: functional; design: scale not given: the % may be the effect or the level left

Q: Which results are given for `C[C@@H](O)c1cc2ccncc2c(=O)[nH]1`?
A: pIC50 (U-87 MG [1]): 5.10; pIC50 (U-251 [2]): 4.87

Q: For `C/C=C1/CN2C3C[C@H]1[C@H](CO)[C@@H]2Cc1c3n(C)c2ccccc12`, which GI50 (U-251 [3]) is on record?
A: 9.5 µM

Q: With `COc1cc(C2(O)C(=O)N=C(N)N2C)ccc1O` (stereo unspecified) as the compound, how does the pIC50 (C6) read?
A: 3.81

Q: With `CC(C)[C@@]12NC(=O)[C@@H](Cc3c1[nH]c1ccccc31)n1c2nc2ccccc2c1=O` as the compound, how does the pIC50 (Hs 683) read?
A: 4.30

Q: What about the pIC50 [4] of the same compound?
A: 4.36

Q: What does the source list for `CC[C@]12C=CC(CC(C)=O)N3CC[C@]4(C(=C(C(=O)OC)C1)Nc1ccccc14)[C@@H]32` (stereo partly specified)?
A: pIC50 (U-87 MG [5]): 5.77; pIC50 (T98G): 5.37; pIC50 [6]: 5.89

Q: With `COc1cc2c3cc1Oc1c(OC)c(OC)cc4c1[C@@H](Cc1ccc(O)c(c1)Oc1ccc(cc1)C[C@@H]3N(C)CC2)N(C)CC4` [BERBAMINE] as the compound, how does the Activity (U-87 MG [7]) read?
A: 5.28 mg

Q: What does the source list for `COc1cc2c(cc1OC)[C@@]13CCN4CC5=CCO[C@H]6CC(=O)N2[C@H]1[C@H]6[C@H]5C[C@H]43` [BRUCINE]?
A: pIC50 (U-251 [8]): 3.21; pIC50 (U-87 MG [9]): 3.22; pIC50 (U-118-MG): 3.27; pIC50 (A 172): 3.28; LD50 at 480 h [10]: 13.2 mg/kg

Q: For `Clc1ccccc1C(c1ccccc1)(c1ccccc1)n1ccnc1` [CLOTRIMAZOLE], which Activity (U-251 [11]) is on record?
A: 70%

Reference: ChEMBL document CHEMBL6115010, “Targeting glioma with heteroaromatic alkaloids: A review of potential therapeutics” (Bioorg Med Chem, 2025)
